According to PubChem BioAssay (NCI):
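96-well plates; 48 h exposure; 5 concentrations. Endpoints by linear interpolation between flanking doses. Not reached: highest tested concentration assigned. TGI is the concentration that stops growth completely.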

Assays:
Experiment in all cases: inhibition of tumour cell growth, NCI panel, 48 h
786-0 renal = tested on: 786-0 renal
A498 renal = tested on: A498 renal
A549 NSCLC = tested on: A549 NSCLC
ACHN renal = tested on: ACHN renal
CAKI-1 renal = tested on: CAKI-1 renal
CCRF-CEM leukemia = tested on: CCRF-CEM leukemia
COLO 205 colon = tested on: COLO 205 colon
DLD-1 colon = tested on: DLD-1 colon
DMS 114 small cell lung = tested on: DMS 114 small cell lung
DMS 273 small cell lung = tested on: DMS 273 small cell lung
EKVX NSCLC = tested on: EKVX NSCLC
HCC-2998 colon = tested on: HCC-2998 colon
HCT-116 colon = tested on: HCT-116 colon
HCT-15 colon = tested on: HCT-15 colon
HL-60(TB) leukemia = tested on: HL-60(TB) leukemia
HOP-18 NSCLC = tested on: HOP-18 NSCLC
HOP-62 NSCLC = tested on: HOP-62 NSCLC
HOP-92 NSCLC = tested on: HOP-92 NSCLC
HT29 colon = tested on: HT29 colon
IGROV1 ovarian = tested on: IGROV1 ovarian
K-562 leukemia = tested on: K-562 leukemia
KM12 colon = tested on: KM12 colon
KM20L2 colon = tested on: KM20L2 colon
LOX IMVI melanoma = tested on: LOX IMVI melanoma
LXFL 529 NSCLC = tested on: LXFL 529 NSCLC
M14 melanoma = tested on: M14 melanoma
M19-MEL melanoma = tested on: M19-MEL melanoma
MALME-3M melanoma = tested on: MALME-3M melanoma
MOLT-4 leukemia = tested on: MOLT-4 leukemia
NCI-H226 lung = tested on: NCI-H226 lung
NCI-H23 lung = tested on: NCI-H23 lung
NCI-H460 lung = tested on: NCI-H460 lung
NCI-H522 lung = tested on: NCI-H522 lung
OVCAR-3 ovarian = tested on: OVCAR-3 ovarian
OVCAR-4 ovarian = tested on: OVCAR-4 ovarian
OVCAR-5 ovarian = tested on: OVCAR-5 ovarian
OVCAR-8 ovarian = tested on: OVCAR-8 ovarian
RXF 393 renal = tested on: RXF 393 renal
RXF-631 renal = tested on: RXF-631 renal
SF-268 CNS = tested on: SF-268 CNS
SF-295 CNS = tested on: SF-295 CNS
SF-539 CNS = tested on: SF-539 CNS
SK-MEL-2 melanoma = tested on: SK-MEL-2 melanoma
SK-MEL-28 melanoma = tested on: SK-MEL-28 melanoma
SK-MEL-5 melanoma = tested on: SK-MEL-5 melanoma
SK-OV-3 ovarian = tested on: SK-OV-3 ovarian
SN12C renal = tested on: SN12C renal
SNB-19 CNS = tested on: SNB-19 CNS
SNB-75 CNS = tested on: SNB-75 CNS
SNB-78 CNS = tested on: SNB-78 CNS
SR leukemia = tested on: SR leukemia
SW-620 colon = tested on: SW-620 colon
TK-10 renal = tested on: TK-10 renal
U251 CNS = tested on: U251 CNS
UACC-257 melanoma = tested on: UACC-257 melanoma
UACC-62 melanoma = tested on: UACC-62 melanoma
UO-31 renal = tested on: UO-31 renal
BT-549 breast = tested on: BT-549 breast
DU-145 prostate = tested on: DU-145 prostate
HS 578T breast = tested on: HS 578T breast
MCF7 breast = tested on: MCF7 breast
MDA-MB-231 breast = tested on: MDA-MB-231 breast
MDA-MB-435 = tested on: MDA-MB-435
MDA-N = tested on: MDA-N
NCI/ADR-RES ovarian = tested on: NCI/ADR-RES ovarian
PC-3 prostate = tested on: PC-3 prostate
RPMI-8226 leukemia = tested on: RPMI-8226 leukemia
T-47D breast = tested on: T-47D breast
XF 498 CNS = tested on: XF 498 CNS

O=C(CC(O)(c1ccccc1)c1ccc(Cl)cc1)NC(=O)c1ccccc1O (stereo not given)
TGI (786-0 renal): 44.9 µM | TGI (A498 renal): 8.62 µM | TGI (A549 NSCLC): > 100 µM | TGI (ACHN renal): 99 µM | TGI (CAKI-1 renal): 23.2 µM | TGI (CCRF-CEM leukemia): 43.2 µM | TGI (COLO 205 colon): 27.5 µM | TGI (DLD-1 colon): > 100 µM | TGI (DMS 114 small cell lung): 31.5 µM | TGI (DMS 273 small cell lung): 39 µM | TGI (EKVX NSCLC): 68.2 µM | TGI (HCC-2998 colon): 21.1 µM | TGI (HCT-116 colon): 52.6 µM | TGI (HCT-15 colon): 37.5 µM | TGI (HL-60(TB) leukemia): 25 µM | TGI (HOP-18 NSCLC): 8.97 µM | TGI (HOP-62 NSCLC): 25.6 µM | TGI (HOP-92 NSCLC): 6.59 µM | TGI (HT29 colon): 53 µM | TGI (IGROV1 ovarian): > 100 µM | TGI (K-562 leukemia): > 100 µM | TGI (KM12 colon): 21.9 µM | TGI (KM20L2 colon): 34.3 µM | TGI (LOX IMVI melanoma): 23.3 µM | TGI (LXFL 529 NSCLC): 56.3 µM | TGI (M14 melanoma): 27.9 µM | TGI (M19-MEL melanoma): 82.8 µM | TGI (MALME-3M melanoma): 70.6 µM | TGI (MOLT-4 leukemia): 46.7 µM | TGI (NCI-H226 lung): 29.8 µM | TGI (NCI-H23 lung): 26.9 µM | TGI (NCI-H460 lung): 26.7 µM | TGI (NCI-H522 lung): 14.9 µM | TGI (OVCAR-3 ovarian): 27.4 µM | TGI (OVCAR-4 ovarian): > 100 µM | TGI (OVCAR-5 ovarian): 8.95 µM | TGI (OVCAR-8 ovarian): 61.3 µM | TGI (RXF 393 renal): 49 µM | TGI (RXF-631 renal): 74.8 µM | TGI (SF-268 CNS): > 100 µM | TGI (SF-295 CNS): 26.3 µM | TGI (SF-539 CNS): 46.8 µM | TGI (SK-MEL-2 melanoma): 22.1 µM | TGI (SK-MEL-28 melanoma): > 100 µM | TGI (SK-MEL-5 melanoma): 19.1 µM | TGI (SK-OV-3 ovarian): 55.4 µM | TGI (SN12C renal): 32 µM | TGI (SNB-19 CNS): > 100 µM | TGI (SNB-75 CNS): 40.8 µM | TGI (SNB-78 CNS): > 100 µM | TGI (SR leukemia): 39.6 µM | TGI (SW-620 colon): > 100 µM | TGI (TK-10 renal): 41.2 µM | TGI (U251 CNS): 26.5 µM | TGI (UACC-257 melanoma): 32.6 µM | TGI (UACC-62 melanoma): 21.3 µM | TGI (UO-31 renal): 6.75 µM

CC(=O)OCC1OC(n2cc(F)c(=O)[nH]c2=O)C(OC(C)=O)C1OC(C)=O (stereo not given)
TGI (786-0 renal): > 94.5 µM | TGI (A498 renal): > 100 µM | TGI (A549 NSCLC): > 100 µM | TGI (ACHN renal): > 100 µM | TGI (BT-549 breast): > 100 µM | TGI (CAKI-1 renal): > 100 µM | TGI (CCRF-CEM leukemia): > 100 µM | TGI (COLO 205 colon): > 83.2 µM | TGI (DLD-1 colon): > 100 µM | TGI (DMS 114 small cell lung): > 100 µM | TGI (DU-145 prostate): > 100 µM | TGI (EKVX NSCLC): > 100 µM | TGI (HCC-2998 colon): > 100 µM | TGI (HCT-116 colon): 71.8 µM | TGI (HCT-15 colon): > 100 µM | TGI (HL-60(TB) leukemia): > 100 µM | TGI (HOP-18 NSCLC): > 100 µM | TGI (HOP-62 NSCLC): > 96.5 µM | TGI (HOP-92 NSCLC): > 55.8 µM | TGI (HS 578T breast): > 100 µM | TGI (HT29 colon): > 100 µM | TGI (IGROV1 ovarian): > 100 µM | TGI (K-562 leukemia): > 100 µM | TGI (KM12 colon): > 100 µM | TGI (KM20L2 colon): > 100 µM | TGI (LOX IMVI melanoma): > 63.9 µM | TGI (LXFL 529 NSCLC): > 100 µM | TGI (M14 melanoma): > 100 µM | TGI (M19-MEL melanoma): > 100 µM | TGI (MALME-3M melanoma): > 100 µM | TGI (MCF7 breast): > 45.3 µM | TGI (MDA-MB-231 breast): > 56.2 µM | TGI (MDA-MB-435): > 100 µM | TGI (MDA-N): > 56.2 µM | TGI (MOLT-4 leukemia): > 77.7 µM | TGI (NCI-H226 lung): > 100 µM | TGI (NCI-H23 lung): > 100 µM | TGI (NCI-H460 lung): > 100 µM | TGI (NCI-H522 lung): > 95.5 µM | TGI (NCI/ADR-RES ovarian): > 100 µM | TGI (OVCAR-3 ovarian): 91.8 µM | TGI (OVCAR-4 ovarian): > 90.3 µM | TGI (OVCAR-5 ovarian): > 100 µM | TGI (OVCAR-8 ovarian): > 100 µM | TGI (PC-3 prostate): > 100 µM | TGI (RPMI-8226 leukemia): > 100 µM | TGI (RXF 393 renal): 99.2 µM | TGI (RXF-631 renal): > 100 µM | TGI (SF-268 CNS): > 100 µM | TGI (SF-295 CNS): > 100 µM | TGI (SF-539 CNS): 52.1 µM | TGI (SK-MEL-2 melanoma): > 100 µM | TGI (SK-MEL-28 melanoma): > 100 µM | TGI (SK-MEL-5 melanoma): > 100 µM | TGI (SK-OV-3 ovarian): > 100 µM | TGI (SN12C renal): > 100 µM | TGI (SNB-19 CNS): > 100 µM | TGI (SNB-75 CNS): > 100 µM | TGI (SNB-78 CNS): > 100 µM | TGI (SR leukemia): > 78.5 µM | TGI (SW-620 colon): > 100 µM | TGI (T-47D breast): > 100 µM | TGI (TK-10 renal): > 100 µM | TGI (U251 CNS): > 95.5 µM | TGI (UACC-257 melanoma): > 100 µM | TGI (UACC-62 melanoma): > 100 µM | TGI (UO-31 renal): > 96.1 µM | TGI (XF 498 CNS): > 100 µM

COc1ccc(C(=O)O/N=C2\CCCC\C2=C/c2ccccc2)cc1
TGI (786-0 renal): > 100 µM | TGI (A498 renal): > 100 µM | TGI (A549 NSCLC): > 100 µM | TGI (ACHN renal): > 100 µM | TGI (CAKI-1 renal): > 100 µM | TGI (CCRF-CEM leukemia): > 100 µM | TGI (COLO 205 colon): > 100 µM | TGI (DLD-1 colon): > 100 µM | TGI (DMS 114 small cell lung): > 100 µM | TGI (DMS 273 small cell lung): > 100 µM | TGI (EKVX NSCLC): > 100 µM | TGI (HCC-2998 colon): > 100 µM | TGI (HCT-116 colon): > 100 µM | TGI (HCT-15 colon): > 100 µM | TGI (HL-60(TB) leukemia): > 100 µM | TGI (HOP-18 NSCLC): > 100 µM | TGI (HOP-62 NSCLC): > 100 µM | TGI (HT29 colon): > 100 µM | TGI (IGROV1 ovarian): > 100 µM | TGI (KM20L2 colon): > 100 µM | TGI (LOX IMVI melanoma): > 100 µM | TGI (LXFL 529 NSCLC): > 100 µM | TGI (M14 melanoma): > 100 µM | TGI (M19-MEL melanoma): > 100 µM | TGI (MOLT-4 leukemia): > 100 µM | TGI (NCI-H23 lung): 41.5 µM | TGI (NCI-H460 lung): > 100 µM | TGI (OVCAR-4 ovarian): 95.8 µM | TGI (OVCAR-8 ovarian): > 100 µM | TGI (RXF-631 renal): > 100 µM | TGI (SF-268 CNS): > 100 µM | TGI (SF-539 CNS): 81.2 µM | TGI (SK-MEL-28 melanoma): > 100 µM | TGI (SK-MEL-5 melanoma): > 100 µM | TGI (SK-OV-3 ovarian): > 100 µM | TGI (SN12C renal): > 100 µM | TGI (SNB-19 CNS): > 100 µM | TGI (SNB-75 CNS): 62 µM | TGI (SNB-78 CNS): > 100 µM | TGI (SW-620 colon): > 100 µM | TGI (TK-10 renal): > 100 µM | TGI (U251 CNS): > 100 µM | TGI (UACC-62 melanoma): > 100 µM | TGI (UO-31 renal): > 100 µM | TGI (XF 498 CNS): 89.2 µM
